Assay [1] deals with T1, Substance-K receptor (Cavia porcellus) (UniProt Q64077).
T1 sequence (whole entry): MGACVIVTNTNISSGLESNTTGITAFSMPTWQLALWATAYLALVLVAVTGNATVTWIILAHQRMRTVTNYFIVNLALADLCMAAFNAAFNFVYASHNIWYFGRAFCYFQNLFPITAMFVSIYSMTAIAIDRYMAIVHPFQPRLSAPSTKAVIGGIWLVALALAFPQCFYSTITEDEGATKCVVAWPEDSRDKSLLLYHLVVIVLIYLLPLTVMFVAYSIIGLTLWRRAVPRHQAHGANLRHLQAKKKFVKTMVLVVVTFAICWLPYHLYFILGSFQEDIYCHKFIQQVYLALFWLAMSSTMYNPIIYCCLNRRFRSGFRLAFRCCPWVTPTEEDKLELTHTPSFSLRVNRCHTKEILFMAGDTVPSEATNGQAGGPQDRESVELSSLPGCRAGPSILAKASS
Nature of the assay: Antagonist activity against Neurokinin 2 (NK2) receptor from guinea pig ileum at a concentration of 1 ug/mL. The class given is functional, tissue-based.

Assay [2] has as its target Substance-P receptor (Cavia porcellus) (UniProt P30547). Nature of the assay: Inhibitory activity against Neurokinin 1 (NK1) receptor from guinea pig lung at a concentration of 1 ug/mL.
The target of the next assay is T2, Substance-K receptor (Cavia porcellus, UniProt Q64077).
T2 sequence (Q64077 whole entry): T1 sequence (whole entry)
Kind of assay: Inhibitory activity against Neurokinin 2 (NK2) receptor from guinea pig ileum. Format: tissue-based.

Another assay has as its target Substance-P receptor (Cavia porcellus, UniProt P30547). Kind of assay: Inhibitory activity against Neurokinin 1 (NK1) receptor from guinea pig lung.

Structures are written as SMILES. Activity calls are given as the source filed them. No cut-off for these calls is given here.

One may read the inhibition as how much of the control response was suppressed. What is called IC50 is the point on the concentration scale where inhibition reaches its midpoint.

Sequence of Substance-P receptor (Cavia porcellus) (P30547 whole entry): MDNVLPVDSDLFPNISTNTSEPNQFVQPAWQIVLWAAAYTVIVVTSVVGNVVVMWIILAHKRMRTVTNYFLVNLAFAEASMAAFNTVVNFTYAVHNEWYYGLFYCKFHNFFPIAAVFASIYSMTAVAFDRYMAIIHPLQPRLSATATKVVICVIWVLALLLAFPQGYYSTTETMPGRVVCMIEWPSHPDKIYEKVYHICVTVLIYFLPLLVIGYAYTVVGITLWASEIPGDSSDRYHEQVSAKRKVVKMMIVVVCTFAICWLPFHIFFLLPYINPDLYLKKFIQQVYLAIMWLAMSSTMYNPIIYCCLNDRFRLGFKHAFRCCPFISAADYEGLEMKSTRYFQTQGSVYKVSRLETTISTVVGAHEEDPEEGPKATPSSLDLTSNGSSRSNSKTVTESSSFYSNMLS
Sequence of Substance-P receptor (P30547 whole entry): as above

Consider `COc1cc(C(=O)N2CO[C@](CCN3CCC4(CC3)CN(c3ccccc3)C(=O)O4)(c3ccc(Cl)c(Cl)c3)C2)cc(OC)c1OC`, for which the inhibition was found to be 12% in assay [1] and 86% in assay [2]. For the compound `COc1cc(C(=O)N2CO[C@](CCN3CCC(NC(=O)c4ccccc4)CC3)(c3ccc(Cl)c(Cl)c3)C2)cc(OC)c1OC`, the inhibition was 44% in assay [1] and 89% in assay [2]. For `COc1cc(C(=O)N2CO[C@](CCN3CCC4(CC3)c3ccccc3C[S+]4[O-])(c3ccc(Cl)cc3)C2)cc(OC)c1OC` (stereo partly drawn), the IC50 at Substance-K receptor was 11 nM; on Substance-P receptor, 19.2 nM. For the compound `COc1cc(C(=O)N2CO[C@](CCN3CCC(C(C)=O)(c4ccccc4)CC3)(c3ccc(Cl)c(Cl)c3)C2)cc(OC)c1OC`, the inhibition in assay [1] came to 57%; in assay [2], 83%. For `COc1cc(C(=O)N2CO[C@](CCN3CCC4(CC3)CN(S(C)(=O)=O)c3ccccc34)(c3ccc(Cl)c(Cl)c3)C2)cc(OC)c1OC`, the inhibition in assay [1] is 91%; in assay [2] it was 98%. For `COc1cc(C(=O)N2CO[C@](CCN3CCC(C(N)=O)(c4ccccn4)CC3)(c3ccc(Cl)c(Cl)c3)C2)cc(OC)c1OC` the same measures were 83% and 95%. For the compound `COc1ccc(C(=O)N2CO[C@](CCN3CCC(C(N)=O)(c4ccccc4)CC3)(c3ccc(Cl)c(Cl)c3)C2)cc1`, the IC50 was 292 nM at Substance-K receptor and 112 nM against Substance-P receptor.

As to `CC(C)Oc1cccc(CC(=O)N2CO[C@](CCN3CCC(C(N)=O)(c4ccccc4)CC3)(c3ccc(Cl)c(Cl)c3)C2)c1`, the results for the inhibition in assay [1] and in assay [2] were 18% and 59%, respectively.

Regarding `COc1ccc(S(=O)(=O)N2CO[C@](CCN3CCC(C(N)=O)(c4ccccc4)CC3)(c3ccc(Cl)c(Cl)c3)C2)cc1OC`, the inhibition in assay [1] worked out at 10%; in assay [2] it was 71%. Consider `Cc1ccc(C(=O)N2CO[C@](CCN3CCC(C(N)=O)(c4ccccc4)CC3)(c3ccc(Cl)c(Cl)c3)C2)cc1`, for which the inhibition was 88% in assay [1] and 56% in assay [2]. On the same counts, the results for `NC(=O)C1(c2ccccc2)CCN(CC[C@@]2(c3ccc(Cl)c(Cl)c3)CN(C(=O)c3ccncc3)CO2)CC1` are 57% and 65%.

As to `COc1cc(C(=O)N2CO[C@](CCN3CCC(C(=O)N(C)C)(c4ccccc4)CC3)(c3ccc(F)cc3)C2)cc(OC)c1OC`, the IC50 on Substance-K receptor is 15 nM; on Substance-P receptor, 27.4 nM.

Consider `COc1cccc(OC)c1C(=O)N1CO[C@](CCN2CCC(C(N)=O)(c3ccccc3)CC2)(c2ccc(Cl)c(Cl)c2)C1`, for which the results for the inhibition in assay [1] and in assay [2] were 83% and 74%, respectively. `COc1cc(C(=O)N2CO[C@](CCN3CCN(c4ncccn4)CC3)(c3ccc(Cl)c(Cl)c3)C2)cc(OC)c1OC`: the inhibition in assay [1] was 48%; in assay [2] it was 100%. On the same counts, the results for `NC(=O)C1(c2ccccc2)CCN(CC[C@@]2(c3ccc(Cl)c(Cl)c3)CN(C(=O)c3ccccc3)CO2)CC1` are 87% and 75%. For `COc1cc(C(=O)N2CO[C@](CCN3CCN(c4ccccn4)CC3)(c3ccc(Cl)c(Cl)c3)C2)cc(OC)c1OC` the same measures were 42% and 100%. For the compound `COc1cc(C(=O)N2CO[C@](CCN3CCC4(CC3)CN(Cc3ccccc3)C(=O)O4)(c3ccc(Cl)c(Cl)c3)C2)cc(OC)c1OC`, the inhibition in assay [1] was 44%; in assay [2] it was 86%. `COc1cccc(C(=O)N2CO[C@](CCN3CCC(C(N)=O)(c4ccccc4)CC3)(c3ccc(Cl)c(Cl)c3)C2)c1`: the values for the inhibition in assay [1] and in assay [2] were 82% and 100%, respectively. With `COc1cc(C(=O)N2CO[C@](CCN3CCC(O)(c4cccnc4)CC3)(c3ccc(Cl)c(Cl)c3)C2)cc(OC)c1OC`, the inhibition in assay [1] and in assay [2] was 100% throughout.

For the compound `COc1cc(C(=O)N2CO[C@](CCN3CCC(C(=O)Nc4ccccc4)CC3)(c3ccc(Cl)c(Cl)c3)C2)cc(OC)c1OC`, the results for the inhibition in assay [1] and in assay [2] were 72% and 44%, respectively. As to `COc1ccc(C(=O)N2CO[C@](CCN3CCC(C(N)=O)(c4ccccc4)CC3)(c3ccc(Cl)c(Cl)c3)C2)cc1OC`, the figures for the inhibition in assay [1] and in assay [2] were 88% and 93%, respectively. On to `COc1cc(C(=O)N2CO[C@](CCN3CCC4(CC3)OCc3ccccc34)(c3ccc(Cl)c(Cl)c3)C2)cc(OC)c1OC`, for which the inhibition in assay [1] amounted to 91%; in assay [2], 98%. As to `COc1cc(CC(=O)N2CO[C@](CCN3CCC(C(N)=O)(c4ccccc4)CC3)(c3ccc(Cl)c(Cl)c3)C2)cc(OC)c1OC`, in assay [1], the inhibition result is “inactive”. The compound further displayed an inhibition in assay [2] of 87%. With `N#Cc1ccc(C(=O)N2CO[C@](CCN3CCC(C(N)=O)(c4ccccc4)CC3)(c3ccc(Cl)c(Cl)c3)C2)cc1`, the figures for the inhibition in assay [1] and in assay [2] were 79% and 29%, respectively. On to `NC(=O)C1(c2ccccc2)CCN(CC[C@@]2(c3ccc(Cl)c(Cl)c3)CN(C(=O)c3cnc4ccccc4n3)CO2)CC1`, for which the results for the inhibition in assay [1] and in assay [2] were 71% and 38%, respectively. Take `CC(=O)Nc1ccc(C(=O)N2CO[C@](CCN3CCC(C(N)=O)(c4ccccc4)CC3)(c3ccc(Cl)c(Cl)c3)C2)cc1`: the inhibition in assay [1] is 85%; in assay [2] it was 9%. As to `NC(=O)C1(c2ccccc2)CCN(CC[C@@]2(c3ccc(Cl)c(Cl)c3)CN(C(=O)c3cc4ccccc4o3)CO2)CC1`, the inhibition in assay [1] was 59%. Moreover, in assay [2], the inhibition result was “inactive”. On the same counts, the results for `COc1ccccc1C(=O)N1CO[C@](CCN2CCC(C(N)=O)(c3ccccc3)CC2)(c2ccc(Cl)c(Cl)c2)C1` are 87% and 100%. Take `COc1cc(C(=O)N2CO[C@](CCN3CCC(O)(c4ccccc4)CC3)(c3ccc(Cl)c(Cl)c3)C2)cc(OC)c1OC`: the inhibition came to 58% in assay [1] and 100% in assay [2].

`NC(=O)C1(c2ccccc2)CCN(CC[C@@]2(c3ccc(Cl)c(Cl)c3)CN(C(=O)c3cnccn3)CO2)CC1`: the inhibition in assay [1] was 47%; in assay [2], 23%.

As for `COc1cc(C(=O)N2CO[C@](CCN3CCC(NC(C)=O)(c4ccccc4)CC3)(c3ccc(Cl)c(Cl)c3)C2)cc(OC)c1OC`, the inhibition in assay [1] is 62%; in assay [2] it was 100%.

As for `COc1cc(OC)cc(C(=O)N2CO[C@](CCN3CCC(C(N)=O)(c4ccccc4)CC3)(c3ccc(Cl)c(Cl)c3)C2)c1`, the inhibition in assay [1] stood at 97%; in assay [2] it was 93%. On Substance-P receptor, `COc1cc(C(=O)N2CO[C@](CCN3CCC(C(=O)NCc4ccccc4)CC3)(c3ccc(Cl)c(Cl)c3)C2)cc(OC)c1OC` gave an IC50 of 92.9 nM. In assay [1], this compound gave an inhibition of 64%. For the compound `COc1cc(C(=O)N2CO[C@](CCN3CCC4(CC3)SCc3ccccc34)(c3ccc(Cl)c(Cl)c3)C2)cc(OC)c1OC`, the inhibition was found to be 89% in assay [1] and 100% in assay [2]. In the case of `COc1cc(C(=O)N2CO[C@](CCN3CCC(O)(c4ccccn4)CC3)(c3ccc(Cl)c(Cl)c3)C2)cc(OC)c1OC`, the inhibition came to 76% in assay [1] and 100% in assay [2].

`Cc1cc(C)cc(C(=O)N2CO[C@](CCN3CCC(C(N)=O)(c4ccccc4)CC3)(c3ccc(Cl)c(Cl)c3)C2)c1`: the inhibition in assay [1] worked out at 90%; in assay [2] it was 100%.

In the case of `NC(=O)C1(c2ccccc2)CCN(CC[C@@]2(c3ccc(Cl)c(Cl)c3)CN(C(=O)c3ccc4ccccc4n3)CO2)CC1`, the inhibition in assay [1] was 71%. Also, the inhibition entry in assay [2] was “inactive”. Regarding `COc1ccc(C(=O)N2CO[C@](CCN3CCC(C(N)=O)(c4ccccc4)CC3)(c3ccc(Cl)c(Cl)c3)C2)c(OC)c1`, the inhibition in assay [1] stood at 85%; in assay [2] it was 78%. Turning to `NC(=O)C1(c2ccccc2)CCN(CC[C@@]2(c3ccc(Cl)c(Cl)c3)CN(C(=O)c3cc4ccccc4[nH]3)CO2)CC1`, the values for the inhibition in assay [1] and in assay [2] were 26% and 96%, respectively. On to `NC(=O)C1(c2ccccc2)CCN(CC[C@@]2(c3ccc(Cl)c(Cl)c3)CN(C(=O)c3ccc(Cl)cc3)CO2)CC1`, for which the inhibition in assay [1] is 88%; in assay [2] it was 50%. In turn, `COc1cc(C(=O)N2CO[C@](CCN3CCC4(CC3)C(=O)NCN4c3ccccc3)(c3ccc(Cl)c(Cl)c3)C2)cc(OC)c1OC` had an IC50 against Substance-P receptor of 7.47 nM.

Consider `COC(=O)c1ccc(C(=O)N2CO[C@](CCN3CCC(C(N)=O)(c4ccccc4)CC3)(c3ccc(Cl)c(Cl)c3)C2)cc1`, for which the inhibition came to 85% in assay [1] and 36% in assay [2]. With `NC(=O)C1(c2ccccc2)CCN(CC[C@@]2(c3ccc(Cl)c(Cl)c3)CN(C(=O)c3cccnc3)CO2)CC1`, the inhibition in assay [1] turned out to be 48%; in assay [2], 38%. Regarding `COc1cc(C(=O)N2CO[C@](CCN3CCC(C(=O)c4ccc(Cl)cc4)CC3)(c3ccc(Cl)c(Cl)c3)C2)cc(OC)c1OC`, the inhibition in assay [1] is 54%; in assay [2] it was 97%. For `NC(=O)C1(c2ccccc2)CCN(CC[C@@]2(c3ccc(Cl)c(Cl)c3)CN(C(=O)c3ccccn3)CO2)CC1`, the inhibition worked out at 73% in assay [1] and 39% in assay [2]. Turning to `NC(=O)C1(c2ccccc2)CCN(CC[C@@]2(c3ccc(Cl)c(Cl)c3)CN(C(=O)c3cccs3)CO2)CC1`, the figures for the inhibition in assay [1] and in assay [2] were 83% and 33%, respectively. For the compound `COc1cc(C(=O)N2CO[C@](CCN3CCC(n4c(O)nc5ccccc54)CC3)(c3ccc(Cl)c(Cl)c3)C2)cc(OC)c1OC`, the inhibition in assay [1] came out at 85%; in assay [2], 100%.

The values above are taken from ChEMBL document CHEMBL1132079, “Combined NK1 and NK2 tachykinin receptor antagonists: synthesis and structure-activity relationships of novel oxazolidine analogues” (Bioorg Med Chem Lett, 1999).
